Reference: patent publication US7485315B2, “Compositions comprising a compound of low solubility and a lipophilic amino acid derivative, uses thereof and process for dissolving a compound of low solubility” (L'Oreal, priority 2001, dated 2009)

Experiments:
[1] = Simple solubility in isopropyl N-lauroylsarcosinate
Method: Protocol: The derivatives of low solubility in water are weighed out and placed in a sealed pill bottle. The required amount of solvent is added. The suspension is stirred (magnetic stirring) at 80° C. for not more than 1 hour.
The non-solubility of the active agent in the solvent is characterized macroscopically by a precipitate or just a cloudy solution, and microscopically by the presence of crystals.
The solvent used is isopropyl N-lauroylsarcosinate.

[2] = Dissolution by lipophilic amino acid derivatives without recrystallization; format: physicochemical; conditions: in lipophilic amino acid derivatives, after 24 hours at 25° C.
Method: By way of illustration, the lipophilic amino acid derivatives used for the purposes of the present patent application allowed the dissolution of: • more than 20% of aminophenol derivatives without recrystallization after three weeks at 25° C., • more than 15% of salicylic acid derivatives without recrystallization after three weeks at 25° C. • about 4% of diosgenin or hecogenin acetate without recrystallization after 24 hours at 25° C.

[3] = content 5% in isopropyl N-lauroylsarcosinate
[4] = content 2% in isopropyl N-lauroylsarcosinate

Structure (SMILES)	Stability over time at 25° C. (clear for) [1, 3]	Amount dissolved without recrystallization [2]	Stability over time at 25° C. (clear for) [1, 4]	other results
CCCCCCCCCCCCNc1ccnc(N)[n+]1[O-] [2-amino-4-dodecylaminopyrimidine 3-oxide]	–	–	–	Stability over time at 25° C. (clear for) ([1]; content 1% in isopropyl N-lauroylsarcosinate): clear for 1 day
CCCCCCCC(=O)c1ccc(O)c(C(=O)O)c1 [5-n-octanoylsalicylic acid]	clear for 7 days	–	–	Stability over time at 25° C. (clear for) ([1]; content 9% in isopropyl N-lauroylsarcosinate): clear for 4 days; Stability over time at 25° C. ([1]; content 27% in isopropyl N-lauroylsarcosinate): clear
C[C@@H]1CC[C@@]2(OC1)O[C@H]1C[C@H]3[C@@H]4CC=C5C[C@@H](O)CC[C@]5(C)[C@H]4CC[C@]3(C)[C@H]1[C@@H]2C [Diosgenin, 5-spirostene-3-β-ol]	–	about 4%	clear for 3 weeks	–
CC(=O)O[C@H]1CC[C@@]2(C)[C@@H](CC[C@@H]3[C@@H]2CC(=O)[C@]2(C)[C@@H]4[C@H](C[C@@H]32)O[C@]2(CC[C@@H](C)CO2)[C@H]4C)C1 [Hecogenin acetate, (3β, 5α, 25R)-3-hydroxyspirostan-12-one (hecogenin acetate)]	–	about 4%	clear for 1 day	–
CCOC(=O)Nc1ccc(O)cc1 [N-ethoxycarbonyl-para-aminophenol, N-ethoxycarbonyl-4-para-aminophenol]	clear for 18 days	–	–	Stability over time at 25° C. (clear for) ([1]; content 20% in isopropyl N-lauroylsarcosinate): clear for 6 days; Stability over time at 25° C. (clear for) ([1]; content 23% in isopropyl N-lauroylsarcosinate): clear for 6 days; Stability over time at 25° C. (clear for) ([1]; content 26% in isopropyl N-lauroylsarcosinate): clear for 1 day
